Data from patent publication US8658604B2, “Template-fixed beta-hairpin peptidomimetics with protease inhibitory activity” (Polyphor Ltd, priority 2005, dated 2014).
Where a SMILES comes first, the peptide text is derived from it.

target: T1, Elastase from human neutrophils (Homo sapiens, UniProt P08246); test: Enzymatic assay, elastase; settings: Elastase IC50
T1 sequence (P08246 30-267): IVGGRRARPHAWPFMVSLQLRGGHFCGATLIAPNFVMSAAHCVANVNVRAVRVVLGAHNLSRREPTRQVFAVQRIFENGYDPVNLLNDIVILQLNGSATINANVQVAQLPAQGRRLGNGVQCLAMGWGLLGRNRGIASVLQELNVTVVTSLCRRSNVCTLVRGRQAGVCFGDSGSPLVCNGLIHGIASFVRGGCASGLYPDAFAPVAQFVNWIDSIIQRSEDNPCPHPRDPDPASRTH

SMILES	IC50
CCCCCCCC[C@@H]1NC(=O)[C@@H]2CCCN2C(=O)[C@H]2CCCN2C(=O)[C@H](CCC(N)=O)NC(=O)[C@@H]2CSSC[C@H](NC1=O)C(=O)N[C@@H]([C@@H](C)O)C(=O)N[C@@H](C)C(=O)N[C@@H](CO)C(=O)N[C@@H]([C@@H](C)CC)C(=O)N1CCC[C@H]1C(=O)N1CCC[C@H]1C(=O)N[C@@H](CCC(N)=O)C(=O)N2 [Ex. 149] (HELM PEPTIDE1{[CCCCCCCC[C@H](N[*:1])C(=O)[*:2]].C.T.A.S.I.P.P.Q.C.Q.[dP].P}$PEPTIDE1,PEPTIDE1,2:R3-10:R3|PEPTIDE1,PEPTIDE1,1:R1-13:R2$$$V2.0)	11 nM
CCCCCCCC[C@@H]1NC(=O)[C@@H]2CCCN2C(=O)[C@H]2CCCN2C(=O)[C@H](Cc2ccc(O)cc2)NC(=O)[C@@H]2CSSC[C@H](NC1=O)C(=O)N[C@@H]([C@@H](C)O)C(=O)N[C@@H](C)C(=O)N[C@@H](CO)C(=O)N[C@@H](CC1CCCCC1)C(=O)N1CCC[C@H]1C(=O)N1CCC[C@H]1C(=O)N[C@@H](CCC(N)=O)C(=O)N2 [Ex. 150] (HELM PEPTIDE1{[CCCCCCCC[C@H](N[*:1])C(=O)[*:2]].C.T.A.S.[Cha].P.P.Q.C.Y.[dP].P}$PEPTIDE1,PEPTIDE1,2:R3-10:R3|PEPTIDE1,PEPTIDE1,1:R1-13:R2$$$V2.0)	10 nM
CCCCCCCC[C@@H]1NC(=O)[C@H](CO)NC(=O)[C@H](C)NC(=O)[C@H]([C@@H](C)O)NC(=O)[C@@H]2CSSC[C@H](NC(=O)[C@H](CCC(N)=O)NC(=O)[C@@H]3CCCN3C(=O)[C@@H]3CCCN3C1=O)C(=O)N[C@@H](Cc1ccccc1)C(=O)N1CCC[C@@H]1C(=O)N1CCC[C@H]1C(=O)N[C@@H](CCc1ccccc1)C(=O)N2 [Ex. 152] (HELM PEPTIDE1{[O=C([C@H](CCc1ccccc1)N[*:1])[*:2]].C.T.A.S.[CCCCCCCC[C@H](N[*:1])C(=O)[*:2]].P.P.Q.C.F.[dP].P}$PEPTIDE1,PEPTIDE1,2:R3-10:R3|PEPTIDE1,PEPTIDE1,1:R1-13:R2$$$V2.0)	9 nM
CCCCCCCC[C@@H]1NC(=O)[C@@H]2CCCN2C(=O)[C@H]2CCCN2C(=O)[C@H](Cc2ccccc2)NC(=O)[C@@H]2CSSC[C@H](NC1=O)C(=O)N[C@@H]([C@@H](C)O)C(=O)N[C@@H](C)C(=O)N[C@@H](CO)C(=O)N[C@@H](CC1CCCCC1)C(=O)N1CCC[C@H]1C(=O)N1CCC[C@H]1C(=O)N[C@@H](CCC(N)=O)C(=O)N2 [Ex. 157] (HELM PEPTIDE1{[CCCCCCCC[C@H](N[*:1])C(=O)[*:2]].C.T.A.S.[Cha].P.P.Q.C.F.[dP].P}$PEPTIDE1,PEPTIDE1,2:R3-10:R3|PEPTIDE1,PEPTIDE1,1:R1-13:R2$$$V2.0)	7 nM
CCCCCCCC[C@@H]1NC(=O)[C@@H]2CCCN2C(=O)[C@H]2CCCN2C(=O)[C@H](CCC(N)=O)NC(=O)[C@@H]2CSSC[C@H](NC1=O)C(=O)N[C@@H]([C@@H](C)O)C(=O)N[C@@H](C)C(=O)N[C@@H](CO)C(=O)N[C@@H](CC1CCCCC1)C(=O)N1CCC[C@H]1C(=O)N1CCC[C@H]1C(=O)N[C@@H](CCC(N)=O)C(=O)N2 [Ex. 159] (HELM PEPTIDE1{[CCCCCCCC[C@H](N[*:1])C(=O)[*:2]].C.T.A.S.[Cha].P.P.Q.C.Q.[dP].P}$PEPTIDE1,PEPTIDE1,2:R3-10:R3|PEPTIDE1,PEPTIDE1,1:R1-13:R2$$$V2.0)	7 nM
CCCCCCCC[C@@H]1NC(=O)[C@H](CO)NC(=O)[C@H](C)NC(=O)[C@H]([C@@H](C)O)NC(=O)[C@@H]2CSSC[C@H](NC(=O)[C@H](CCC(N)=O)NC(=O)[C@@H]3CCCN3C(=O)[C@@H]3CCCN3C1=O)C(=O)N[C@@H](Cc1ccc(O)cc1)C(=O)N1CCC[C@@H]1C(=O)N1CCC[C@H]1C(=O)N[C@@H](CCc1ccccc1)C(=O)N2 [Ex. 161] (HELM PEPTIDE1{[O=C([C@H](CCc1ccccc1)N[*:1])[*:2]].C.T.A.S.[CCCCCCCC[C@H](N[*:1])C(=O)[*:2]].P.P.Q.C.Y.[dP].P}$PEPTIDE1,PEPTIDE1,2:R3-10:R3|PEPTIDE1,PEPTIDE1,1:R1-13:R2$$$V2.0)	6 nM
C[C@@H]1NC(=O)[C@H]([C@@H](C)O)NC(=O)[C@@H]2CSSC[C@H](NC(=O)[C@H](CCC(N)=O)NC(=O)[C@@H]3CCCN3C(=O)[C@@H]3CCCN3C(=O)[C@H](CC3CCCCC3)NC(=O)[C@H](CO)NC1=O)C(=O)N[C@@H](Cc1ccc(O)cc1)C(=O)N1CCC[C@@H]1C(=O)N1CCC[C@H]1C(=O)N[C@@H](CCc1ccccc1)C(=O)N2 [Ex. 162] (HELM PEPTIDE1{[O=C([C@H](CCc1ccccc1)N[*:1])[*:2]].C.T.A.S.[Cha].P.P.Q.C.Y.[dP].P}$PEPTIDE1,PEPTIDE1,2:R3-10:R3|PEPTIDE1,PEPTIDE1,1:R1-13:R2$$$V2.0)	12.5 nM
CCCC[C@@H]1NC(=O)[C@H](CCC(N)=O)NC(=O)[C@@H](CCC(N)=O)NC(=O)[C@H](CC2CCCCC2)NC(=O)[C@@H]2CSSC[C@H](NC1=O)C(=O)N[C@@H]([C@@H](C)O)C(=O)N[C@@H](C)C(=O)N[C@@H](CO)C(=O)N[C@@H](CC1CCCCC1)C(=O)N1CCC[C@H]1C(=O)N1CCC[C@H]1C(=O)N[C@@H](CCC(N)=O)C(=O)N2 [Ex. 171] (HELM PEPTIDE1{[Nle].C.T.A.S.[Cha].P.P.Q.C.[Cha].[dQ].Q}$PEPTIDE1,PEPTIDE1,2:R3-10:R3|PEPTIDE1,PEPTIDE1,1:R1-13:R2$$$V2.0)	13 nM
CCCC[C@@H]1NC(=O)[C@H](CCC(N)=O)NC(=O)[C@H]2CCCN2C(=O)[C@H](CCC(N)=O)NC(=O)[C@@H]2CSSC[C@H](NC1=O)C(=O)N[C@@H]([C@@H](C)O)C(=O)N[C@@H](C)C(=O)N[C@@H](CO)C(=O)N[C@@H](CC1CCCCC1)C(=O)N1CCC[C@H]1C(=O)N1CCC[C@H]1C(=O)N[C@@H](CCC(N)=O)C(=O)N2 [compound 164] (HELM PEPTIDE1{[Nle].C.T.A.S.[Cha].P.P.Q.C.Q.[dP].Q}$PEPTIDE1,PEPTIDE1,2:R3-10:R3|PEPTIDE1,PEPTIDE1,1:R1-13:R2$$$V2.0)	24 nM
CCCCCCCC[C@@H]1NC(=O)[C@H](CCC(=O)O)NC(=O)[C@@H](CCCCN)NC(=O)[C@H](Cc2ccc(O)cc2)NC(=O)[C@@H]2CSSC[C@H](NC1=O)C(=O)N[C@@H]([C@@H](C)O)C(=O)N[C@@H](C)C(=O)N[C@@H](CO)C(=O)N[C@@H]([C@@H](C)CC)C(=O)N1CCC[C@H]1C(=O)N1CCC[C@H]1C(=O)N[C@@H](CCC(N)=O)C(=O)N2 [compound 165] (HELM PEPTIDE1{[CCCCCCCC[C@H](N[*:1])C(=O)[*:2]].C.T.A.S.I.P.P.Q.C.Y.[dK].E}$PEPTIDE1,PEPTIDE1,2:R3-10:R3|PEPTIDE1,PEPTIDE1,1:R1-13:R2$$$V2.0)	22 nM
CCCC[C@@H]1NC(=O)[C@H](CCC(N)=O)NC(=O)[C@H]2CCCN2C(=O)[C@H](Cc2ccc(O)cc2)NC(=O)[C@@H]2CSSC[C@H](NC1=O)C(=O)N[C@@H]([C@@H](C)O)C(=O)N[C@@H](C)C(=O)N[C@@H](CO)C(=O)N[C@@H](CC1CCCCC1)C(=O)N1CCC[C@H]1C(=O)N1CCC[C@H]1C(=O)N[C@@H](CCC(N)=O)C(=O)N2 [compound 170] (HELM PEPTIDE1{[Nle].C.T.A.S.[Cha].P.P.Q.C.Y.[dP].Q}$PEPTIDE1,PEPTIDE1,2:R3-10:R3|PEPTIDE1,PEPTIDE1,1:R1-13:R2$$$V2.0)	16 nM
CCCC[C@@H]1NC(=O)[C@H](CCC(N)=O)NC(=O)[C@H]2CCCN2C(=O)[C@H](CC2CCCCC2)NC(=O)[C@@H]2CSSC[C@H](NC1=O)C(=O)N[C@@H]([C@@H](C)O)C(=O)N[C@@H](C)C(=O)N[C@@H](CO)C(=O)N[C@@H](CC1CCCCC1)C(=O)N1CCC[C@H]1C(=O)N1CCC[C@H]1C(=O)N[C@@H](CCC(N)=O)C(=O)N2 [compound 172] (HELM PEPTIDE1{[Nle].C.T.A.S.[Cha].P.P.Q.C.[Cha].[dP].Q}$PEPTIDE1,PEPTIDE1,2:R3-10:R3|PEPTIDE1,PEPTIDE1,1:R1-13:R2$$$V2.0)	13 nM
CC[C@H](C)[C@@H]1NC(=O)[C@H](CO)NC(=O)[C@H](C)NC(=O)[C@H]([C@@H](C)O)NC(=O)[C@@H]2CSSC[C@H](NC(=O)[C@H](CCC(N)=O)NC(=O)[C@@H]3CCCN3C(=O)[C@@H]3CCCN3C1=O)C(=O)N[C@@H](Cc1ccc(O)cc1)C(=O)N1CCC[C@@H]1C(=O)N[C@@H](CCC(N)=O)C(=O)N[C@@H](CCc1ccccc1)C(=O)N2 [compound 173] (HELM PEPTIDE1{[O=C([C@H](CCc1ccccc1)N[*:1])[*:2]].C.T.A.S.I.P.P.Q.C.Y.[dP].Q}$PEPTIDE1,PEPTIDE1,2:R3-10:R3|PEPTIDE1,PEPTIDE1,1:R1-13:R2$$$V2.0)	12 nM
CCCC[C@@H]1NC(=O)[C@H](CCC(N)=O)NC(=O)[C@H]2CCCN2C(=O)[C@H](Cc2ccccc2Cl)NC(=O)[C@@H]2CSSC[C@H](NC1=O)C(=O)N[C@@H]([C@@H](C)O)C(=O)N[C@@H](C)C(=O)N[C@@H](CO)C(=O)N[C@@H](CC1CCCCC1)C(=O)N1CCC[C@H]1C(=O)N1CCC[C@H]1C(=O)N[C@@H](CCC(N)=O)C(=O)N2 [compound 175] (HELM PEPTIDE1{[Nle].C.T.A.S.[Cha].P.P.Q.C.[O=C([C@H](Cc1ccccc1Cl)N[*:1])[*:2]].[dP].Q}$PEPTIDE1,PEPTIDE1,2:R3-10:R3|PEPTIDE1,PEPTIDE1,1:R1-13:R2$$$V2.0)	12 nM
CCCCCCCC[C@@H]1NC(=O)[C@H](CCC(N)=O)NC(=O)[C@H]2CCCN2C(=O)[C@H](CCC(N)=O)NC(=O)[C@@H]2CSSC[C@H](NC1=O)C(=O)N[C@@H]([C@@H](C)O)C(=O)N[C@@H](C)C(=O)N[C@@H](CO)C(=O)N[C@@H](CCCCCCCC)C(=O)N1CCC[C@H]1C(=O)N1CCC[C@H]1C(=O)N[C@@H](CCC(N)=O)C(=O)N2 [compound 178] (HELM PEPTIDE1{[CCCCCCCC[C@H](N[*:1])C(=O)[*:2]].C.T.A.S.[CCCCCCCC[C@H](N[*:1])C(=O)[*:2]].P.P.Q.C.Q.[dP].Q}$PEPTIDE1,PEPTIDE1,2:R3-10:R3|PEPTIDE1,PEPTIDE1,1:R1-13:R2$$$V2.0)	6 nM
